Results taken from US6958162B2, “Herbal composition for treating allergic disorders and method for making the same” (Industrial Technology Research Institute, priority 2003, dated 2005).

Columns and labels:
[1] = system: IL-4 released from EL-4 cells; assay: Measurement of IL-4 released from stimulated EL-4 cells (ELISA); type: cell-based, mouse; settings: FIG. 3b, 3c
Description: During the day of experiment, the herbal drug was diluted in the cell culture medium to the end point (0.5 μg/ml, 5 μg/ml, or as appropriate). The ability of each herbal composition and its mixtures to affect the production of IL-4, TNF-alpha, and cLT was measured.
The mouse thymoma cell lines, EL-4 were incubated with each composition or mixture for 2 hours before it was stimulated by 100 ng/ml of A23187 and PMA. Samples of tissue culture medium were collected at the end of 24 hours incubation and stored at −70 degrees C. prior to assay.
Cytokine measurements were carried out using the commercially available ELISA assay kit (R&D Systems, Minneapolis, Minn.) in accordance with the supplier's protocols. In brief, 100 μl of the assay buffer supplied was added to each of the wells of a micro-titer plate containing pre-bound anti-cytokine antibody, followed by 100 μl of a standard or sample solution, diluted appropriately for the concentration range measured. All incubations were carried out at 37 degrees C. After two hours incubation, the plates were washed four times with a wash buffer, and the second antibody, Detection Antibody, was added with 1:200 in Reagent Diluent to each well. The plates were sealed and incubated for 2 hours. […] Optical sensitivity was determined at 450 nm using a Molecular Devices of micro-titer plate reader.

pulmonary function = assay: Pulmonary function determination (barometric plethysmograph, methacholine) in Der p 2 allergic mice; type: in vivo, Balb/c mice; settings: DEX 1 μg/mouse/day, TCM 20 mg/mouse/day; result in words
Description: Male Balb/c mice were obtained from the National Laboratory Breeding Research Center in Taiwan and were raised in a specific pathogen-free environment. These mice used were between 6 and 8 weeks of age. Groups of six mice were caged separately according to their treatments. Recombinant Dermatophoides pteronyssinus group 2 (Der p 2) was prepared from Dr. Tsai's lab and test drugs, Traditional Chinese Medicine A (TCM-A, or 1217A in FIGS. 7, 8, 9, and 10) and Traditional Chinese Medicine B (TCM-B, or 1217B in FIGS. 7, 8, 9, and 10) were prepared from the Biomedical Engineering Center Industrial Technology Research Institute, Hsinchu, Taiwan. […]
Each mouse was placed inside a barometric plethysmograph (Buxco Electronics, Troy, N.Y.). […] The pressure signal was amplified, digitized via an A/D convert card, and sent to a computer with a BioSystem XA program (Buxco Electronics, Troy, N.Y.), which sampled and calculated desired respiratory parameters. […]
An aerosol was generated by placing a 5 ml saline or methacholine (1.56 to 50.00 mg/ml) solution in the cup of an ultrasonic nebulizer (DeVilbiss, Somerset, Pa.) and it was delivered via a connecting tube and a three-way connector to the animal chamber of the plethysmograph. […] At first, each mouse inhaled the saline aerosol for 3 mins and then the respiratory parameters were measured for 3 mins. […]

[2] = system: inflammatory cells in the BAL fluids; assay: Der p 2 induced allergic airway inflammation in mice: cell counts in BAL fluid; type: in vivo, Balb/c mice; settings: DEX 1 μg/mouse/day, mean ± SEM
Description: Male Balb/c mice were obtained from the National Laboratory Breeding Research Center in Taiwan and were raised in a specific pathogen-free environment. These mice used were between 6 and 8 weeks of age. Groups of six mice were caged separately according to their treatments. Recombinant Dermatophoides pteronyssinus group 2 (Der p 2) was prepared from Dr. Tsai's lab and test drugs, Traditional Chinese Medicine A (TCM-A, or 1217A in FIGS. 7, 8, 9, and 10) and Traditional Chinese Medicine B (TCM-B, or 1217B in FIGS. 7, 8, 9, and 10) were prepared from the Biomedical Engineering Center Industrial Technology Research Institute, Hsinchu, Taiwan.
Mice were immunized by intraperitoneal (i.p.) injection of 1 μg/0.1 ml Der p 2 emulsified in 4 μg/0.062 ml aluminum hydroxide Al(OH)3 (Whitehall Lab Ltd, Punchbowel, Australia) on day 0 and day 7. After immunization, mice were fed with TCM for 3 weeks. Mice of different groups were fed with Dexamethasome (1 μg/mouse/day), TCM-A (20 mg/mouse/day), TCM-B (20 mg/mouse/day) or normal saline 500 μl/mouse/day. On days 28 and 35, mice were lightly anesthetized with an i.p. injection of 60 mg/kg of sodium pentobarbital (Sigma Chemical Co., St. Louis, Mo., USA) and intratracheally (i.t.) inoculated with 1 μg/50 μl of Der p 2. Twenty-four hours after the second i.t. inoculation, mice were sacrificed after pulmonary function measurement.
After pulmonary function measurement, bronchoalveolar lavage (BAL) was performed with the following procedure. Two separate injections of 1 ml sterile endotoxin-free saline were given into the lung via the trachea of each mouse. Approximately 1.8 ml of the bronchoalveolar lavage (BAL) fluid was recovered constantly. The BAL fluids were aspirated and stored at −70° C. until assay. After total leukocyte counting, a cytospin preparation of […] BAL fluid was stained with Liu stain (Tonyar Diagnostic Inc, Taipei County, Taiwan) and differential counts were performed on 200 cells. […] Blood samples were obtained via the orbital sinus and sera were collected and stored at −70° C. until assay.

Row | Structure (SMILES) | effect on IL-4 released from EL-4 cells (excipients and powder with excipients) [1] | pulmonary function of allergic animals (methacholine from low dose to high dose) (pulmonary function) | Differential Counts, Eos ([2]; BAL fluid, TCM 20 mg/mouse/day) | Differential Counts, Lym ([2]; BAL fluid, TCM 20 mg/mouse/day) | Differential Counts, Macro ([2]; BAL fluid, TCM 20 mg/mouse/day) | Differential Counts, Neu ([2]; BAL fluid, TCM 20 mg/mouse/day) | Total cell NO in BAL fluid ([2]; fed 3 weeks, TCM-A or TCM-B 20 mg/mouse/day)
1 | O=P([O-])([O-])[O-].O=P([O-])([O-])[O-].[Ca+2].[Ca+2].[Ca+2] [Ca3(PO4)2] | do not have any effect | – | – | – | – | – | –
2 | C[C@@H]1C[C@H]2[C@@H]3CCC4=CC(=O)C=C[C@]4(C)[C@@]3(F)[C@@H](O)C[C@]2(C)[C@@]1(O)C(=O)CO [DEX, Dexamethasone] | – | can improve the pulmonary function | 3.2 ± 0.4 ×10^4/ml | 9.4 ± 1.5 ×10^4/ml | 29.2 ± 4.4 ×10^4/ml | 6.6 ± 1.0 ×10^4/ml | 46.4 ± 2.2 ×10^4/ml
